How the values were obtained:
[1] = tested on: creatine amidinohydrolase from Alkaligenes sp. KS-85 (FERM BP-4487), the present enzyme; assay: Km determination by Lineweaver-Burk plot, creatine substrate; format: biochemical; details: pH 7.7, 37° C.
Experimental: The enzyme activity forming […] yellow pigment in 1 minute under the following conditions is referred to as 1 U of the present enzyme.
6.63 g of creatine is dissolved in 500 ml of 50 mM buffer, pH 7.7.
1) 0.9 ml of the solution 1 is pre-incubated at 37° C. for 5 min.
2) 0.1 ml of an enzyme solution (adjusted in the range of approx. 1-2 U/ml) is mixed therewith and allowed to react at 37° C. for 10 min.
3) After 10 min. reaction, 2 ml of the solution 2 is mixed therewith.
4) After being mixed with the solution 2, the mixture is allowed to stand at 25° C. for 20 min., and the absorbance at 435 nm is determined (the OD sample).

[2] = biological target: T1, conventional creatine amidinohydrolase (CRH-211, a product of Toyobo Co., Ltd.) (Pseudomonas putida, UniProt P38488); details: conventional enzyme; substrate creatine; cited from earlier work
T1 construct: purchased Toyobo Co., Ltd. CRH-211
T1 sequence (P38488 1-403): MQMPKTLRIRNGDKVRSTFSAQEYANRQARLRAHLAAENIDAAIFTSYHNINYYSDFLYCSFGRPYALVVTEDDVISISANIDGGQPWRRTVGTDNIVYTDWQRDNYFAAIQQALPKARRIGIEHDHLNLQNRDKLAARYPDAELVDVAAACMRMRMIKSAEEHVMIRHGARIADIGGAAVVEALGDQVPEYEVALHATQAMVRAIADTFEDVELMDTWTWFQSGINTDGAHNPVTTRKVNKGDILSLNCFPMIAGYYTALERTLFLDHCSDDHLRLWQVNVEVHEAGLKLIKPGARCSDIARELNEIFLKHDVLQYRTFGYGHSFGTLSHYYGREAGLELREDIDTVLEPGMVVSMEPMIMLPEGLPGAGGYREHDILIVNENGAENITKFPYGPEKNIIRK

SMILES: CN(CC(=O)O)C(=N)N [creatine]
- Km [1]: 13 mM
- Km [2]: 24 mM

Source: patent US5451520A, “Creatine amidinohydrolase from alkaligenes sp. ks-85 ferm bp-4487” (Kikkoman Corporation, priority 1993, dated 1995)
